According to US6347239B1, “Method of evaluating the efficacy of drug on brain nerve cells” (priority 1998, dated 2002):
Where “and” joins values, the source holds several entries; their conditions need not be identical. Identical values can stand only once.

Assays:
[1] = tested on: patients with ALS; test: Clinical status and muscle strength (MRC grades) of ALS patients during therapy; type: in vivo, human
Text: Deltoid and iliopsoas MRC grades improved bilaterally from 4 to 4+.
Several patients agreed to longer term follow up studies. […] Patient #17 was never treated: NAA/Cr decreased from 2.51 to 2.42 after 21 days and further to 2.11 4 months later; their symptoms progressed slowly.

[2] = tested on: primary motor cortex of patients with ALS; test: Proton MRSI of NAA/Cr in the motor cortex of ALS patients, paired scans; type: in vivo, human
Method: Nineteen patients with a diagnosis of definite or probable ALS, as per the El Escorial Criteria, ^12 were recruited. Each patient underwent paired MRSI examinations. […] Thus, closely paired MRSIs were obtained off medication in 12 subjects who formed a disease control group ALS-C.
Brain proton spectroscopy was performed using a Philips Gyroscan ACS3 operating at 1.5 Tesla (Philips Medical System, Best, The Netherlands). After axial and sagittal scout images and sagittal T1-weighted images were obtained, axial T1-weighted images were acquired with an angulation determined from sagittal T1-weighted images such that the transverse plane was perpendicular to the rostral-caudal axis of the precentral gyrus. These transverse scans were used to select a volume of interest (VOI) centered on the central sulcus, high in the cranium comprised of predominantly cortical brain (FIG. 1A). Cranio-caudal (CC) thickness was 20 mm. Anteroposterior (AP) and left-right (LR) dimensions were adjusted for each patient depending on the skull size and shape to maximize size without including skull. MRSI was performed using a 90°-180°−180° (PRESS) sequence (TR=1750, TE=272, 250×250 mm FOV, 32×32 phase-encoding steps) with prior suppression of water by selective excitation. One patient had all their scans performed with TR=1500. The ROI was repositioned in the identical location in follow up scans of each patient.
Post-processing of data, included a mild Gaussian filter and an inverse two-dimensional Fourier transform of both the water-suppressed and -unsuppressed ^1H-MRS. This was accomplished with XUNSPEC1 software (Philips Medical Systems Best, The Netherlands) running on a Sun SPARC™ station.
The residual water signal was removed using the HSVD (Hankel Singular-Value Decomposition) algorithm which models the time-domain ^1H-MRS data in each voxel with exponentially damped sinusoids. Peaks used to model the water signal were then subtracted from the original data. This algorithm is fully automatic and requires no prior knowledge or operator intervention.
Automated calculation of metabolite peak areas was performed on operator-selected voxels within the motor cortex. Peaks were digitally integrated to yield areas. These values were normalized by dividing them by that of Cr.
The NAA/Cr of the primary motor cortex was determined by averaging the NAA/Cr intensities of voxels located in the precentral gyrus of both hemispheres (FIGS. 1A and 1B). The difference in motor cortex NAA/Cr between two scans (ΔNAA/Cr) obtained approximately 3 weeks apart was determined for each ALS patient in the treated (ALS-R) and control (ALS-C) groups. ΔNAA/Cr was compared between the treated and control groups using a two-sample two-sided Student's t-test. In addition, a two-sided paired Student's t-test was used to evaluate the significance of […] within each group.

In the case of `Nc1nc2ccc(OC(F)(F)F)cc2s1` [RILUZOLE, 2-amino-6-trifluoromethoxy-benzothiazole], the clinical status ([1]; patient #2, three months after the 35-day scan) is reported as “increased strength and fewer cramps”, the clinical status ([1]; patient #3, three months after the 18-day scan) is reported as “significant clinical deterioration” and the “clinical status (weakness, predominantly LMN features)” value ([1]; patient #5, one year later) is reported as “slowly progressed”. The “symptomatic and functional changes” value ([1]; patient #11, after 35 days of therapy) was “improved strength and reduced disability”, the “average NAA/Cr for the group after therapy” value ([2]; 11 patients (ALS-R), 24±8 days after initiating therapy, increased from 2.14±0.26, mean±SD, p=0.044) was 2.27±0.24 and the “ΔNAA/Cr = Change in NAA/Cr between MRSI scan #1 and #2” value ([2]; ALS-R group, scan just before treatment vs approximately three weeks after starting 50 mg bid, individual patients 1-11 and group mean (n = 11)) was −0.011 and 0.111 and 0.438 and 0.295 and 0.118 and 0.234 and −0.021 and −0.251 and 0.222 and 0.290 and 0.034. For the same compound, the “NAA/Cr MRSI #2 (NAA/Cr of motor cortex)” value ([2]; ALS-R group, second scan approximately three weeks after starting 50 mg bid, individual patients 1-11 and group mean (n = 11)) was 2.508 and 2.643 and 2.442 and 2.416 and 2.423 and 2.291 and 1.890 and 2.083 and 2.247 and 1.969 and 2.053, the “change in NAA/Cr for the treated group with respect to the untreated group (increase)” value ([2]; ALS-R vs ALS-C, approximately 3 weeks, mean±SE, p=0.008) was 0.22±0.095 and the NAA/Cr ([2]; patient #2, after 35 days of therapy, from 2.53) was 2.64. For the same compound, the NAA/Cr ([2]; patient #2, three months later than the 35-day scan) was 2.74, the NAA/Cr ([2]; patient #3, after 18 days of therapy, from 2.00) was 2.44 and the NAA/Cr ([2]; patient #3, three months later than the 18-day scan) was 1.46. The NAA/Cr ([2]; patient #5, after 21 days of therapy, from 2.24) was 2.31, the NAA/Cr ([2]; patient #5, one year later) was 2.42 and the “signal from NAA in the motor cortex” value ([2]; patients with ALS, acute (within 3 weeks) after treatment) was “increase”.
